From patent US11633420B2, “Method of treating leukemia” (Epizyme, Inc., priority 2012, dated 2023)

What was measured:
MV4;11 (MLL-AF4) cells = assay: In vitro anti-proliferative assay, MV4;11; type: cell-based, human; details: up to 14 days
Method: (§1) In Vitro Anti-Proliferative Assay. The potency and selectivity of the anti-proliferative activity of the compounds of the present invention were assessed using a panel of MLL-rearranged and non-MLL-rearranged human leukemia cell lines. The MLL-rearranged panel included cell lines derived from ALL, AML and biphenotypic leukemias harboring MLL-AF4, MLL-AF9 or MLL-ENL fusions. These cell lines recruit DOT1L.
(§2) Exponentially growing cells were plated, in triplicate, in 96-well plates at a density of 3×10^4 cells/well in a final volume of 150 μl. […] Anti-proliferative activity was determined by cell viability measurements every 3-4 days for up to 14 days.

EOL-1 cells (MLL-PTD) = assay: In vitro anti-proliferative assay, EOL-1; type: cell-based; details: Homo sapiens, EOL1, 336 h; EOL-1 (MLL-PTD), up to 14 days
Method: as §1, §2

MV4-11 xenograft tumors = assay: In vivo anti-proliferative assay, mouse xenograft model of MLL-rearranged leukemia; details: 21 days
Method: In Vivo Anti-Proliferative Assay. The in vivo anti-tumor activity of the compounds of the present invention were assessed in a mouse xenograft model of MLL-rearranged leukemia. Four groups of 20 (Groups 1, 3, 4 and 5), and one group of 8 (Group 2) female nude mice (average weight of 0.023 kg) bearing MV4-11 xenograft tumors of sizes ranging from 80-120 mm^3 were implanted subcutaneously with minipumps (Alzet Model 2001). Group 1 received vehicle only from the pump. Group 2 received vehicle only from the pump plus ip injections tid (8 hours apart) of vehicle. […] Pumps were designed to last for 7 days and were exchanged twice to give total infusion duration of 21 days exposure. […] Blood samples were taken from Group 3 on days 7 and 14 at the following time points (3 animals per time point): 5 minutes pre-ip dose, and 15 min, 30 min, 1, 2, and 4 hours post ip dose. On day 21 three hours after the last ip injection, a single blood sample was taken from Group 3. Tumor size was measured every 4 days. After 21 days the study was terminated, and mean TGI calculated.

[1] = test system: HL-60 cells (non-MLL-rearranged); assay: In vitro anti-proliferative assay, HL-60; type: cell-based, human; details: HL-60, up to 14 days
Method: as §1, §2

MOLM-13 (MLL-AF9) cells = assay: In vitro anti-proliferative assay, MOLM-13; type: cell-based, human; details: up to 14 days
Method: as §1, §2

KOPN-8 (MLL-ENL) cells = assay: In vitro anti-proliferative assay, KOPN-8; type: cell-based, human; details: up to 14 days
Method: as §1, §2

[2] = test system: Jurkat cells (non-MLL-rearranged); assay: In vitro anti-proliferative assay, Jurkat; type: cell-based, human; details: up to 14 days
Method: as §1, §2

CC(C)N(C[C@H]1O[C@@H](n2cnc3c(N)ncnc32)[C@H](O)[C@@H]1O)[C@H]1C[C@@H](CCc2nc3cc(C(C)(C)C)ccc3[nH]2)C1 [Compound 2, (2R,3R,4S,5R)-2-(6-amino-9H-purin-9-yl)-5-((((1r,3S)-3-(2-(5-(tert-butyl)-1H-benzo[d]imidazol-2-yl)ethyl)cyclobutyl)(isopropyl)amino)methyl)tetrahydrofuran-3,4-diol]
anti-proliferative activity (IC50) (MV4;11 (MLL-AF4) cells): potent nanomolar anti-proliferative activity
IC50 (EOL-1 cells (MLL-PTD)): 11 nM
TGI compared to controls (MV4-11 xenograft tumors; 56 mg/kg/day minipump, non-statistically significant): 43%
TGI compared to controls (MV4-11 xenograft tumors; 112 mg/kg/day minipump, non-statistically significant): 38%
TGI compared to controls (MV4-11 xenograft tumors; Group 3: 112 mg/kg/day minipump plus ip 20 mg/kg tid (172 mg/kg/day), statistically significant): > 70%
anti-proliferative activity [1]: no activity
anti-proliferative activity (IC50) (MOLM-13 (MLL-AF9) cells): potent nanomolar anti-proliferative activity
anti-proliferative activity (IC50) (KOPN-8 (MLL-ENL) cells): potent nanomolar anti-proliferative activity
anti-proliferative activity [2]: no activity
